Structures can show the parent of a compound that is named as a salt.
target: T1, untagged HECT of NEDD4 wild-type (WT) (E3 ligase) (Homo sapiens, UniProt P46934); experiment: In vitro ubiquitination assay TR-FRET based (self-ubiquitination of NEDD4); assay type: biochemical; conditions: at 11 μM; pre-incubated for 1 hour; AUC of 120 minutes kinetic; read-out: percentages of inhibition (NEDD4)
T1 construct: untagged HECT of NEDD4 wild-type (WT) (E3 ligase); made in house
T1 sequence (P46934 519-900 isoform P46934-4 limits assumed): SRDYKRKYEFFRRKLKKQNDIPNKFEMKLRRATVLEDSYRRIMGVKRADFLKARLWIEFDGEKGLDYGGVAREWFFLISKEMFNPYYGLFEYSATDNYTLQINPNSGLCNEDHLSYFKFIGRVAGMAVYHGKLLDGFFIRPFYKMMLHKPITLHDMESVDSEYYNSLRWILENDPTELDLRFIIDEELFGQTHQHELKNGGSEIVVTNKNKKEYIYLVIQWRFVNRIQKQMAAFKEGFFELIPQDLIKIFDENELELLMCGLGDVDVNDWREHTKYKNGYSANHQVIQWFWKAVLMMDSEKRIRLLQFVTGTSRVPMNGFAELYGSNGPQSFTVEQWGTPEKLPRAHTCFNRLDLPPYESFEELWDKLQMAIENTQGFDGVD
How it was run: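 Mix of E1, His-UBE2D3 and untagged NEDD4 HECT (final 30, 350, 50 nM) with Eu-cryptate/Cy5/unlabelled ubiquitin in pH 7.6 Tris buffer, compounds (100–0.005 μM dilution series) pre-incubated 1 h, then started with ATP. 665/620 nm TR-FRET followed 120 min; % inhibition from AUC versus DMSO, no-ATP background.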

Row | Structure (SMILES) | inhibition at 11 µM [%]
1 | CCOC(=O)/C=C/CNCCCCN1c2ccc(COCCOC)cc2CCc2ccc(Cl)cc21 [Compound 76, Ethyl (E)-4-[4-(7-chloro-2-methoxyethoxymethyl-10,11-dihydro-dibenzo[b,f]azepin-5-yl)-butylamino]-but-2-enoate maleate] | > 50
2 | CCOC(=O)/C=C/CNCCCCN1c2cc(Cl)ccc2C(=O)N(CCOCCOCCOC)c2ccccc21 [Compound 87, Ethyl (E)-4-{[4-(3-chloro-10-[2-[2-(2-methoxyethoxy)ethoxy]ethyl]-11-oxo-10,11-dihydro-5H-dibenzo[b,e][1,4]diazepin-5-yl)butyl]amino}but-2-enoate maleate] | > 50
3 | COC(=O)/C=C/CN(C)CCCN1c2ccccc2CCc2ccc(Cl)cc21 [Compound 1, Methyl (E)-4-[3-(3-chloro-10,11-dihydro-5H-dibenzo[b,f]azepin-5-yl)propyl-methyl-amino]but-2-enoate hydrochloride] | 30 to 50
4 | CC(=O)/C=C/CN(C)CCCCN1c2cc(Cl)ccc2COc2ccccc21 [Compound 70, (E)-5-[4-(3-Chlorodibenzo[b,e][1,4]oxazepin-5(11H)-yl)butyl-methyl-amino]pent-3-en-2-one maleate] | > 50
5 | CN(C/C=C/C#N)CCCCN1c2ccccc2CCc2ccc(Cl)cc21 [Compound 73, (E)-4-[4-(3-Chloro-10,11-dihydro-5H-dibenzo[b,f]azepin-5-yl)butyl-methyl-amino]but-2-enenitrile maleate] | > 50
6 | CCOC(=O)/C=C/CNCCCN1c2ccccc2CCc2ccc(Cl)cc21 [Compound 4, Ethyl (E)-4-[3-(3-chloro-10,11-dihydro-5H-dibenzo[b,f]azepin-5-yl)propylamino]but-2-enoate fumarate] | > 50
7 | O=C(/C=C/CNCCCCN1c2ccccc2CCc2ccc(Cl)cc21)NOC1CCNCC1 [Compound 83, (E)-4-[4-(3-Chloro-10,11-dihydro-5H-dibenzo[b,f]azepin-5-yl)butylamino]-N-(4-piperidyloxy)-but-2-enamide dimaleate] | > 50
8 | CCOC(=O)/C=C/CNCCCN1c2ccccc2NC(=O)c2ccc(C(F)(F)F)cc21 [Compound 25, Ethyl (E)-4-{[3-(11-oxo-3-(trifluoromethyl)-10,11-dihydro-5H-dibenzo[b,e][1,4]diazepin-5-yl)propyl]amino}but-2-enoate maleate] | < 30
9 | COCCOC(=O)/C=C/CNCCCCN1c2ccccc2CCc2ccc(Cl)cc21 [Compound 102, 2-methoxy-ethyl (E)-4-[4-(3-chloro-10,11-dihydro-dibenzo[b,f]azepin-5-yl)-butylamino]-but-2-enoate maleate] | > 50
10 | CCOC(=O)/C=C/CNCCCCN1c2ccc(OCCOCCOC)cc2CCc2ccc(Cl)cc21 [Compound 98, Ethyl (E)-4-(4-{7-chloro-2-[2-(2-methoxy-ethoxy)-ethoxy]-10,11-dihydro-5H-dibenzo[b,f]azepin-5-yl}-butylamino)-but-2-enoate maleate] | > 50
11 | CNC(=O)/C=C/CNCCCCN1c2ccccc2CCc2ccc(Cl)cc21 [Compound 66, (E)-4-{[4-(3-chloro-10,11-dihydro-5H-dibenzo[b,f]azepin-5-yl)butyl]amino}-N-methyl-but-2-enamide hydrochloride] | 30 to 50
12 | CC(C)ONC(=O)/C=C/CNCCCCN1c2ccccc2CCc2ccc(Cl)cc21 [Compound 81, (E)-4-[4-(3-chloro-10,11-dihydro-5H-dibenzo[b,f]azepin-5-yl)butylamino]-N-isopropoxy-but-2-enamide maleate] | > 50
13 | CCOC(=O)/C=C/CN(CCCCN1c2ccccc2CCc2ccc(Cl)cc21)C(C)C [Compound 65, Ethyl (E)-4-{[4-(3-chloro-10,11-dihydro-dibenzo[b,f]azepin-5-yl)butyl]-isopropyl-amino}but-2-enoate maleate] | > 50
14 | CCOC(=O)/C=C/CNCCCCN1c2ccc(O)cc2CCc2ccc(Cl)cc21 [Compound 39, Ethyl (E)-4-[4-(7-Chloro-2-hydroxy-10,11-dihydro-dibenzo[b,f]azepin-5-yl)-butylamino]-but-2-enoate maleate] | > 50
15 | CCOC(=O)/C=C/CNCCCN1c2ccccc2COc2ccc(Cl)cc21 [Compound 2, Ethyl (E)-4-[3-(7-chlorodibenzo[b,e][1,4]oxazepin-5(11H)-yl)propylamino]but-2-enoate maleate] | > 50
16 | C#CCOCCOc1ccc2c(c1)CCc1ccc(Cl)cc1N2CCCCN(C)C/C=C/C#N [Compound 90, (E)-4-{4-[7-chloro-2-(2-prop-2-ynoxyethoxy)-10,11-dihydro-5H-dibenzo[b,f]azepin-5-yl]butyl-methyl-amino}but-2-enenitrile maleate] | > 50
17 | CCOC(=O)/C=C/CNCCCCN1c2cc(Cl)ccc2NC(=O)c2ccccc21 [Compound 41, Ethyl (E)-4-{[4-(7-chloro-11-oxo-10,11-dihydro-5H-dibenzo[b,e][1,4]diazepin-5-yl)butyl]amino}but-2-enoate maleate] | > 50
18 | CCOC(=O)/C=C/CNCCCCCN1c2ccccc2CCc2ccc(Cl)cc21 [Compound 13, Ethyl (E)-4-[5-(3-chloro-10,11-dihydro-5H-dibenzo[b,f]azepin-5-yl)pentylamino]but-2-enoate maleate] | > 50
19 | O=C(O)/C=C/CNCCCN1c2ccccc2CCc2ccc(Cl)cc21 [Compound 16, (E)-4-[3-(3-chloro-10,11-dihydro-5H-dibenzo[b,f]azepin-5-yl)propylamino]but-2-enoic acid 2,2,2-trifluoroacetate] | < 30
20 | CN(C/C=C/C(N)=O)CCCCN1c2ccccc2CCc2ccc(Cl)cc21 [Compound 72, (E)-4-[4-(3-Chloro-10,11-dihydro-5H-dibenzo[b,f]azepin-5-yl)butyl-methyl-amino]but-2-enamide] | > 50
21 | CCOC(=O)/C=C/CNCCCN1c2ccccc2COc2ccc(C(F)(F)F)cc21 [Compound 3, Ethyl (E)-4-{3-[7-(trifluoromethyl)dibenzo[b,e][1,4]oxazepin-5(11H)-yl]propylamino}but-2-enoate maleate] | 30 to 50

From patent publication US12403144B2, “HECT E3 ligase inhibitors and uses thereof” (IFOM FONDAZIONE ISTITUTO FIRC DI ONCOLOGIA MOLECOLARE, priority 2019, dated 2025)
